Measurements: patent publication US11684598B2, “Use of cannabinoids in the treatment of epilepsy” (priority 2015, dated 2023)
“And” between values parts separate entries of the source, which are not always exact repeats. Equal values may be shown once. Read-outs that look alike come from different tables or passages of the source.

Columns and labels:
[1] = Toxicokinetics from toxicological studies in dogs, daily oral (gavage) administration; assay type: in vivo, dog; conditions: for Vd/F: read-out: Vz/F
Method: Samples were taken from the jugular vein into lithium heparin. Samples were mixed gently by hand then continuously for at least 2 minutes on automatic mixer and placed in a Kryorack until centrifugation, which was carried out at approximately 4° C. as soon as practicable. The resultant plasma was separated under low light conditions, transferred to uniquely labelled clear glass vials, placed in light proof boxes and frozen immediately at <−50° C.

seizures [2] = conditions: 200 mg/day pure CBD, twelve institutionalized adult patients, open label; cited from earlier work
seizures [3] = conditions: 200 mg/day pure CBD, four adult patients; cited from earlier work
[4] = CBD 100 mg/kg oral, Day 1, females, Max
[5] = CBD 100 mg/kg oral, Day 1, females, Min
[6] = CBD 100 mg/kg oral, Day 1, females, individual animals (Subjects 115-120)
[7] = CBD 100 mg/kg oral, Day 1, males, Max
[8] = CBD 100 mg/kg oral, Day 1, males, Min
[9] = CBD 100 mg/kg oral, Day 1, males, individual animals (Subjects 15-20)

## C=C(C)[C@@H]1CCC(C)=C[C@H]1c1c(O)cc(CCCCC)cc1O [CBD, Cannabidiol]
[1]; CBD 100 mg/kg oral, Day 1, females, Geometric Mean
  tl/2: 5.9 h
[1]; [4]
  AUC0-inf: 32800 ng·h/mL
  AUC0-t: 32400 ng·h/mL
  CL/F: 632 mL/min/kg
  Cmax: 3780 ng/mL
  tl/2: 8.4 h
  tmax: 8.0 h
[1]; CBD 100 mg/kg oral, Day 1, females, Mean, N=4
  tl/2: 6.1 h
[1]; CBD 100 mg/kg oral, Day 1, females, Median
  tl/2: 5.7 h
[1]; [5]
  AUC0-inf: 2640 ng·h/mL
  AUC0-t: 2540 ng·h/mL
  CL/F: 50.8 mL/min/kg
  Cmax: 411 ng/mL
  tl/2: 4.5 h
  tmax: 1.0 h
[1]; [6]
  AUC0-inf: 32800 ng·h/mL and 3280 ng·h/mL and 22400 ng·h/mL and 2640 ng·h/mL
  AUC0-t: 31300 ng·h/mL and 3000 ng·h/mL and 20000 ng·h/mL and 22600 ng·h/mL and 2540 ng·h/mL and 32400 ng·h/mL
  CL/F: 50.8 mL/min/kg and 508 mL/min/kg and 74.5 mL/min/kg and 632 mL/min/kg
  Cmax: 3780 ng/mL and 655 ng/mL and 2520 ng/mL and 1900 ng/mL and 411 ng/mL and 3270 ng/mL
  tl/2: 4.7 h and 8.4 h and 6.6 h and 4.5 h
  tmax: 2.0 h and 8.0 h and 1.0 h
[1]; CBD 100 mg/kg oral, Day 1, males, Geometric Mean
  tl/2: 7.0 h
[1]; [7]
  AUC0-inf: 60500 ng·h/mL
  AUC0-t: 51800 ng·h/mL
  CL/F: 82.1 mL/min/kg
  Cmax: 4570 ng/mL
  tl/2: 8.6 h
  tmax: 8.0 h
[1]; CBD 100 mg/kg oral, Day 1, males, Mean, N=5
  tl/2: 7.2 h
[1]; CBD 100 mg/kg oral, Day 1, males, Median
  tl/2: 7.7 h
[1]; [8]
  AUC0-inf: 20300 ng·h/mL
  AUC0-t: 17200 ng·h/mL
  CL/F: 27.5 mL/min/kg
  Cmax: 1400 ng/mL
  tl/2: 5.4 h
[1]; [9]
  AUC0-inf: 55300 ng·h/mL and 60500 ng·h/mL and 20300 ng·h/mL and 31100 ng·h/mL
  AUC0-t: 47300 ng·h/mL and 51800 ng·h/mL and 33000 ng·h/mL and 17200 ng·h/mL and 28700 ng·h/mL and 26400 ng·h/mL
  CL/F: 30.1 mL/min/kg and 27.5 mL/min/kg and 82.1 mL/min/kg and 53.6 mL/min/kg
  Cmax: 3960 ng/mL and 4570 ng/mL and 3620 ng/mL and 1400 ng/mL and 2430 ng/mL and 3090 ng/mL
  tl/2: 8.6 h and 7.7 h and 5.4 h and 8.5 h and 5.7 h
  tmax: 8.0 h
[1]; female, dog, plasma, po, 100 mg/kg, CBD 100 mg/kg oral, Day 1, females, Geometric Mean, read-out: AUC0-inf
  AUC0-inf: 8930 ng·h/mL
[1]; female, dog, plasma, po, 100 mg/kg, CBD 100 mg/kg oral, Day 1, females, Geometric Mean, read-out: AUC0-t
  AUC0-t: 12300 ng·h/mL
[1]; female, dog, plasma, po, 100 mg/kg, CBD 100 mg/kg oral, Day 1, females, Geometric Mean, read-out: CL/F
  CL/F: 187 mL/min/kg
[1]; female, dog, plasma, po, 100 mg/kg, CBD 100 mg/kg oral, Day 1, females, Geometric Mean, read-out: Cmax
  Cmax: 1590 ng/mL
[1]; female, dog, plasma, po, 100 mg/kg, CBD 100 mg/kg oral, Day 1, females, Geometric Mean
  Vd/F: 94.8 L/kg
[1]; female, dog, plasma, po, 100 mg/kg, CBD 100 mg/kg oral, Day 1, females, Mean, N=4, read-out: AUC0-inf
  AUC0-inf: 15300 ng·h/mL
[1]; female, dog, plasma, po, 100 mg/kg, CBD 100 mg/kg oral, Day 1, females, Mean, N=4, read-out: CL/F
  CL/F: 316 mL/min/kg
[1]; female, dog, plasma, po, 100 mg/kg, CBD 100 mg/kg oral, Day 1, females, Mean, N=4
  Vd/F: 169 L/kg
[1]; female, dog, plasma, po, 100 mg/kg, CBD 100 mg/kg oral, Day 1, females, Mean, N=6, read-out: AUC0-t
  AUC0-t: 18600 ng·h/mL
[1]; female, dog, plasma, po, 100 mg/kg, CBD 100 mg/kg oral, Day 1, females, Mean, N=6, read-out: Cmax
  Cmax: 2090 ng/mL
[1]; female, dog, plasma, po, 100 mg/kg, CBD 100 mg/kg oral, Day 1, females, Median, read-out: AUC0-inf
  AUC0-inf: 12800 ng·h/mL
[1]; female, dog, plasma, po, 100 mg/kg, CBD 100 mg/kg oral, Day 1, females, Median, read-out: AUC0-t
  AUC0-t: 21300 ng·h/mL
[1]; female, dog, plasma, po, 100 mg/kg, CBD 100 mg/kg oral, Day 1, females, Median, read-out: CL/F
  CL/F: 291 mL/min/kg
[1]; female, dog, plasma, po, 100 mg/kg, CBD 100 mg/kg oral, Day 1, females, Median, read-out: Cmax
  Cmax: 2210 ng/mL
[1]; female, dog, plasma, po, 100 mg/kg, CBD 100 mg/kg oral, Day 1, females, Median
  Vd/F: 145 L/kg
[1]; female, dog, plasma, po, 100 mg/kg, CBD 100 mg/kg oral, Day 1, females, Median, read-out: tmax
  tmax: 4 h
[1]; female, dog, plasma, po, 100 mg/kg, comparative Table 11, females, 100 mg/kg, Day 1, mean, read-out: AUC0-t
  AUC0-t: 18600 ng·h/mL
[1]; female, dog, plasma, po, 100 mg/kg, comparative Table 11, females, 100 mg/kg, Day 1, mean, read-out: Cmax
  Cmax: 2090 ng/mL
[1]; male, dog, plasma, po, 100 mg/kg, CBD 100 mg/kg oral, Day 1, males, Geometric Mean, read-out: AUC0-inf
  AUC0-inf: 37600 ng·h/mL
[1]; male, dog, plasma, po, 100 mg/kg, CBD 100 mg/kg oral, Day 1, males, Geometric Mean, read-out: AUC0-t
  AUC0-t: 31900 ng·h/mL
[1]; male, dog, plasma, po, 100 mg/kg, CBD 100 mg/kg oral, Day 1, males, Geometric Mean, read-out: CL/F
  CL/F: 44.4 mL/min/kg
[1]; male, dog, plasma, po, 100 mg/kg, CBD 100 mg/kg oral, Day 1, males, Geometric Mean, read-out: Cmax
  Cmax: 2970 ng/mL
[1]; male, dog, plasma, po, 100 mg/kg, CBD 100 mg/kg oral, Day 1, males, Geometric Mean
  Vd/F: 27 L/kg
[1]; male, dog, plasma, po, 100 mg/kg, CBD 100 mg/kg oral, Day 1, males, Mean, N=5, read-out: AUC0-inf
  AUC0-inf: 40500 ng·h/mL
[1]; male, dog, plasma, po, 100 mg/kg, CBD 100 mg/kg oral, Day 1, males, Mean, N=5, read-out: CL/F
  CL/F: 48.1 mL/min/kg
[1]; male, dog, plasma, po, 100 mg/kg, CBD 100 mg/kg oral, Day 1, males, Mean, N=5
  Vd/F: 29.9 L/kg
[1]; male, dog, plasma, po, 100 mg/kg, CBD 100 mg/kg oral, Day 1, males, Mean, N=6, read-out: AUC0-t
  AUC0-t: 34100 ng·h/mL
[1]; male, dog, plasma, po, 100 mg/kg, CBD 100 mg/kg oral, Day 1, males, Mean, N=6, read-out: Cmax
  Cmax: 3180 ng/mL
[1]; male, dog, plasma, po, 100 mg/kg, CBD 100 mg/kg oral, Day 1, males, Median, read-out: AUC0-inf
  AUC0-inf: 35400 ng·h/mL
[1]; male, dog, plasma, po, 100 mg/kg, CBD 100 mg/kg oral, Day 1, males, Median, read-out: AUC0-t
  AUC0-t: 30800 ng·h/mL
[1]; male, dog, plasma, po, 100 mg/kg, CBD 100 mg/kg oral, Day 1, males, Median, read-out: CL/F
  CL/F: 47.1 mL/min/kg
[1]; male, dog, plasma, po, 100 mg/kg, CBD 100 mg/kg oral, Day 1, males, Median, read-out: Cmax
  Cmax: 3360 ng/mL
[1]; male, dog, plasma, po, 100 mg/kg, CBD 100 mg/kg oral, Day 1, males, Median
  Vd/F: 22.3 L/kg
[1]; male, dog, plasma, po, 100 mg/kg, CBD 100 mg/kg oral, Day 1, males, Median, read-out: tmax
  tmax: 6 h
[1]; male, dog, plasma, po, 100 mg/kg, CBD 100 mg/kg oral, Day 1, males, individual animals (Subjects 15-20), read-out: tmax
  tmax: 6 h
[1]; male, dog, plasma, po, 100 mg/kg, comparative Table 10, males, 100 mg/kg, Day 1, mean, read-out: AUC0-t
  AUC0-t: 34100 ng·h/mL
[1]; male, dog, plasma, po, 100 mg/kg, comparative Table 10, males, 100 mg/kg, Day 1, mean, read-out: Cmax
  Cmax: 3180 ng/mL
Seizures [2]
  control of seizures: ineffective in controlling seizures
Seizures [3]
  seizure freedom: two of the four patients became seizure free
